Tested on: luteinizing hormone (LH) content in plasma
Experiment: Luteinizing hormone (LH) content in plasma of bilateral ovariectomy (OVX) rats
Format: in vivo
Conditions: oral 30 mg/kg, plasma LH 0-8 h
Source text: Test Example 5. Effect of the Compounds of the Present Invention on Luteindzing Hormone (LH) Content in Plasma of Bilateral Ovariectomy (OVX) Rats
The objective of this test example was to determine the effect of the compounds on luteinizing hormone (LH) in plasma of bilateral ovarnectomy (OVX) rats.
10-Week-old female bilateral ovariectomy SD rats were purchased from Beijing Vital River Laboratory Animal Technology Co., Ltd. The animals were housed in a SPF grade animal facility with 5 SD rats per cage. The cages, bedding, feed and water were disinfected at high temperatures before use. All animals had free access to food and water.
Drug administration by groups: 10-Week-old female SD rats were subjected to bilateral ovariectomy and used in experiments after 3 weeks. Each SD rat was fasted overnight before the experiment, and then randomly divided into groups (3 rats per group) before the drug administration. Different test compounds were administered orally to each drug administration group at a dose of 30 mg/kg and a volume of 10 mL/kg.
Sample collection: 0.2-0.3 mL of whole blood of the SD rats in each group was collected at 0, 0.5, 1, 2, 4, 8 hours before and after the drug administration, and placed in EDTA-K2 tubes. The tubes were inverted and mixed well, and centrifuged at 4° C. at 5,000 rpm for 5 min. Then the plasma was separated and stored in an ultra-low temperature freezer (−80±10° C.).
Sample detection: All reagents, samples and ELISA plates were equilibrated at room temperature (20-25° C.) for at least 30 min. The sample was thawed, vortexed and centrifuged for use. The standard curve was prepared with Assay buffer C according to the concentration sequence of 10, 5, 2.5, 1.25, 0.625, 0.313 and 0. The sample was diluted by two folds with Sample dilution buffer G and left to stand at room temperature for 10 min. […] The OD values of each well was read at a wavelength of 450 nm with a microplate reader.
The standard curve was plotted by using Graphpad, and the concentration of the sample was calculated. […]

For C[C@@H]1c2nnc(-c3nc4cnc(Cl)cc4s3)n2CCN1C(=O)c1ccc(F)cc1 [Example 37, (R)-(3-(6-Chlorothiazolo[4,5-c]pyridin-2-yl)-8-methyl-5,6-dihydro-[1,2,4]triazolo[4,3-a]pyrazin-7(8H)-yl)(4-fluorophenyl)methanone], the “ΣAUC(ΔLH/LH · h, Mean ± SD)” value was −0.52 ± 2.24 ΔLH/LH · h.

Reference: patent US20230271969A1, “NITROGEN-CONTAINING FUSED RING DERIVATIVE INHIBITOR, PREPARATION METHOD THEREFOR AND USE THEREOF” (Shanghai Hansoh Biomedical Co., Ltd., priority 2020, published 2023)
